Non-standard residues stand in square brackets, D forms with d. Residues, ends and D or L forms follow the SMILES beside them. Gly(N-(CH2)6NH2) = NCCCCCCNCC(=O)O; Gly(N-2-aminoethyl) = NCCNCC(=O)O; Nspe = C[C@H](NCC(=O)O)c1ccccc1; Nphe = O=C(O)CNCc1ccccc1; Nlys = NCCCCNCC(=O)O
Columns and labels:
Assay type in all cases: cell-based
human erythrocytes = test: Haemolytic assay; conditions: peptoid 100 µM, 37 °C, 1 h, absorbance 450 nm; positive control 1% Triton x-100; n = 3 independent experiments, 3 replicates each
Protocol: The haemolytic assay was employed to determine the potential cytotoxicity of the peptoids against human red blood cells. Blood samples were collected with ethical approval and informed consent in vacutainer containers with dipotassium ethylene- diaminetetraacetic acid (K2-EDTA). Blood was then transferred to a 50 mL tube and centrifuged at 1200× g for 5 min at room temperature. The supernatant was removed and PBS was added to the original volume of sample obtained. This step was repeated a further 3 times. The red blood cells were then diluted to 8% of their original volume for use in the haemolytic assay. A 1% solution of Triton x-100 in PBS served as a positive control, and PBS was used as a negative control.
Peptoids 1, 2, 3, 4, 5, 6, 7, 8 and 9 were diluted in PBS to 200 µM. A total volume of 100 µL of each peptoid was placed in the wells of a v-bottomed 96-well microtitre plate. Red blood cells (100 µL), prepared as outlined above, were then added. The final peptoid concentration in each well was therefore 100 µM. The plate was sealed with an adhesive film to prevent evaporation and incubated at 37 °C for 1 h. Following this time, the plate was centrifuged at 4000 RPM for 5 min to pellet unlysed red blood cells. Following this step, 100 µL of supernatant was carefully removed from each well and added to a flat-bottomed 96-well microtitre plate. The absorbance was read at 450 nm using a Tecan Genios (Männedorf, Switzerland) plate reader, and the percentage of red blood cells lysed was calculated.

[1] = system: human primary gingival fibroblasts; test: MTT cell viability assay; conditions: peptoid 1 µM, 24 h, 37 °C; n = 3 independent experiments, 6 replicates each
Protocol: Cultured primary gingival fibroblast cells were obtained with ethical approval and informed consent, and were grown as previously described. Cells were seeded in 96-well plates at a concentration of 1 × 10^5 cells/mL (100 µL per well). Plates were incubated at 37 °C for 48 h to allow cells to reach confluence. Peptoids 1, 3, 4, 5, 6, 7 and 9 were diluted to 200 µM, 20 µM and 2 µM. The culture medium was removed and replaced with 50 µL of Dulbecco’s Modified Eagle’s Medium (DMEM) and 50 µL of the relevant peptoid. The cells were incubated for 24 h at 37 °C. After this time, 10 µL of 3-(4, 5- dimethylthiazol-2-yl)-2,5-diphenyltetrazolium bromide (MTT) reagent (Sigma-Aldrich, Poole, UK) was added to each well and the plate was incubated for a further 3 h at 37 °C. The medium was removed by aspiration and the wells were allowed to dry for 20 min. Then, 200 µL of dimethyl sulfoxide (DMSO) (Sigma-Aldrich, Poole, UK) was added to all wells and the plate was placed in an incubator for 30 min. The absorbance of the wells was read in a Tecan Genios (Männedorf, Switzerland) plate reader at 510 nm after 60 s of orbital shaking.

[2] = system: Fusobacterium nucleatum biofilm; test: Biofilm inhibition assay with PMA-qPCR; conditions: strain NCTC 10562, anaerobic, 96-well plate, 48 h with peptoid + 48 h maturation, n = 3 independent experiments
Protocol: The F. nucleatum type strain (NCTC 10562, originally isolated from human, inflamed gingival tissue) was obtained from the National Collection of Type Cultures. The optical density (OD) of an overnight culture was measured spectrophotometrically at 570 nm and diluted with fresh broth to an OD of 0.30–0.35. The culture was further diluted 1 in 50 with anaerobic broth, giving a final inoculum concentration of approximately 5 × 10^6 CFU/mL. A biofilm inhibition assay was undertaken in a 96-well plate format. Peptoids 4 and 9 were added along with the inoculum (90 µL of inoculum in broth and 10 µL of peptoid solution) to each well, to yield peptoid concentrations of 1 µM and 10 µM. A solution containing 10 µL of PBS and 90 µL of anaerobic broth acted as an untreated control. Biofilms were allowed to develop in the presence of peptoids 4 or 9 for 48 h. After 48 h biofilm development, planktonic cells were removed by gently washing three times with PBS and then replacing the broth with 100 µL of fresh anaerobic broth prior to a further 48 h incubation for biofilm maturation. After this time, the wells were gently washed three times with 100 µL of PBS to remove planktonic cells. Plates were then sealed with parafilm, and the biofilms were dislodged from the wells in an ultrasonic bath for 20 min. Plates were then returned to the anaerobic cabinet and the dislodged biofilm samples were collected in Eppendorf tubes.
Propidium monoazide (PMA)-qPCR was undertaken essentially as previously described. Briefly, PMA (Biotium, Fremont, CA, USA), was diluted 1 in 50 with PBS. The diluted PMA was then added to the dislodged biofilm samples in a 1:1 ratio in an Eppendorf tube, to give a final PMA concentration of 200 µM. The Eppendorfs were incubated at 37 °C for 10 min in the dark and then placed under a broad spectrum LED floodlight (ELRD, HL60 ^0 LEDx Max 0.1V) for 10 min. During this time, the Eppendorfs were inverted several times. Bacterial DNA was then extracted using the Qiagen blood and tissue kit (Germantown, MD, USA) according to the manufacturer’s instructions. Briefly, bacterial samples released from biofilms were centrifuged at 14000 RPM for 6 min, and the supernatant was removed. Bacterial pellets were resuspended in 200 µL of AL buffer, and 25 µL of proteinase K was added to each Eppendorf. The suspensions were then heated to 56 °C for 30 min with shaking. Following this, 200 µL of ethanol was added to each Eppendorf and mixed gently. The contents were placed in fresh spin columns in 2 mL collection tubes. The spin columns were centrifuged at 8000 RPM for 2 min. The flow-through and the collection tubes were discarded. The spin columns were placed in fresh collection tubes, and 500 µL of AW1 buffer was added to each column. […]

Row | Structure (SMILES) | Percentage lysis of human erythrocytes (human erythrocytes) | Viability of gingival fibroblasts (MTT) vs untreated controls [1] | F. nucleatum biofilm formation (live cell numbers by PMA-qPCR) ([2]; peptoid 1 µM) | F. nucleatum biofilm formation (live cell numbers by PMA-qPCR) ([2]; peptoid 10 µM)
1 | NCCCCNCC(=O)N(CC(=O)N(CC(=O)N(CCCCN)CC(=O)N(CC(=O)N(CC(=O)N(CCCCN)CC(=O)N(CC(=O)N(CC(=O)N(CCCCN)CC(=O)N(CC(=O)N(CC(N)=O)Cc1ccccc1)Cc1ccccc1)Cc1ccccc1)Cc1ccccc1)Cc1ccccc1)Cc1ccccc1)Cc1ccccc1)Cc1ccccc1 [Peptoid 1] (H-[Nlys][Nphe][Nphe][Nlys][Nphe][Nphe][Nlys][Nphe][Nphe][Nlys][Nphe][Nphe]-NH2; N-terminus assumed) | ≥ 10% | – | – | –
2 | C[C@@H](c1ccccc1)N(CC(N)=O)C(=O)CN(C(=O)CN(CCCCN)C(=O)CN(C(=O)CN(C(=O)CN(CCCCN)C(=O)CN(C(=O)CN(C(=O)CNCCCCN)[C@@H](C)c1ccccc1)[C@@H](C)c1ccccc1)[C@@H](C)c1ccccc1)[C@@H](C)c1ccccc1)[C@@H](C)c1ccccc1 [Peptoid 3] (H-[Nlys][Nspe][Nspe][Nlys][Nspe][Nspe][Nlys][Nspe][Nspe]-NH2; N-terminus assumed) | ≥ 10% | – | – | –
3 | NCCNCC(=O)N(CC(=O)N(CC(=O)N(CCN)CC(=O)N(CC(=O)N(CC(=O)N(CCN)CC(=O)N(CC(=O)N(CC(=O)N(CCN)CC(=O)N(CC(=O)N(CC(N)=O)Cc1ccccc1)Cc1ccccc1)Cc1ccccc1)Cc1ccccc1)Cc1ccccc1)Cc1ccccc1)Cc1ccccc1)Cc1ccccc1 [Peptoid 4, (NaeNpheNphe)4-NH2] (H-[Gly(N-2-aminoethyl)][Nphe][Nphe][Gly(N-2-aminoethyl)][Nphe][Nphe][Gly(N-2-aminoethyl)][Nphe][Nphe][Gly(N-2-aminoethyl)][Nphe][Nphe]-NH2; N-terminus assumed) | ≥ 10% | not to alter gingival fibroblast viability | statistically significant reduction in biofilm formation | statistically significant reduction in biofilm formation
4 | C[C@@H](c1ccccc1)N(CC(N)=O)C(=O)CN(C(=O)CN(CCN)C(=O)CN(C(=O)CN(C(=O)CN(CCN)C(=O)CN(C(=O)CN(C(=O)CNCCN)[C@@H](C)c1ccccc1)[C@@H](C)c1ccccc1)[C@@H](C)c1ccccc1)[C@@H](C)c1ccccc1)[C@@H](C)c1ccccc1 [Peptoid 5] (H-[Gly(N-2-aminoethyl)][Nspe][Nspe][Gly(N-2-aminoethyl)][Nspe][Nspe][Gly(N-2-aminoethyl)][Nspe][Nspe]-NH2; N-terminus assumed) | ≥ 10% | – | – | –
5 | NCCCCCCNCC(=O)N(CC(=O)N(CC(=O)N(CCCCCCN)CC(=O)N(CC(=O)N(CC(=O)N(CCCCCCN)CC(=O)N(CC(=O)N(CC(=O)N(CCCCCCN)CC(=O)N(CC(=O)N(CC(N)=O)Cc1ccccc1)Cc1ccccc1)Cc1ccccc1)Cc1ccccc1)Cc1ccccc1)Cc1ccccc1)Cc1ccccc1)Cc1ccccc1 [Peptoid 6] (H-[Gly(N-(CH2)6NH2)][Nphe][Nphe][Gly(N-(CH2)6NH2)][Nphe][Nphe][Gly(N-(CH2)6NH2)][Nphe][Nphe][Gly(N-(CH2)6NH2)][Nphe][Nphe]-NH2; N-terminus assumed) | less than 5% | – | – | –
6 | NCCCCCCNCC(=O)N(CC(=O)N(CC(=O)N(CCCCCCN)CC(=O)N(CC(=O)N(CC(=O)N(CCCCCCN)CC(=O)N(CC(=O)N(CC(N)=O)Cc1ccccc1)Cc1ccccc1)Cc1ccccc1)Cc1ccccc1)Cc1ccccc1)Cc1ccccc1 [Peptoid 7] (H-[Gly(N-(CH2)6NH2)][Nphe][Nphe][Gly(N-(CH2)6NH2)][Nphe][Nphe][Gly(N-(CH2)6NH2)][Nphe][Nphe]-NH2; N-terminus assumed) | less than 5% | – | – | –
7 | C[C@@H](c1ccccc1)N(CC(N)=O)C(=O)CN(C(=O)CN(CCCCCCN)C(=O)CN(C(=O)CN(C(=O)CN(CCCCCCN)C(=O)CN(C(=O)CN(C(=O)CNCCCCCCN)[C@@H](C)c1ccccc1)[C@@H](C)c1ccccc1)[C@@H](C)c1ccccc1)[C@@H](C)c1ccccc1)[C@@H](C)c1ccccc1 [Peptoid 9, (NahNspeNspe)3-NH2] (H-[Gly(N-(CH2)6NH2)][Nspe][Nspe][Gly(N-(CH2)6NH2)][Nspe][Nspe][Gly(N-(CH2)6NH2)][Nspe][Nspe]-NH2; N-terminus assumed) | less than 5% | not to alter gingival fibroblast viability | statistically significant reduction in biofilm formation | statistically significant reduction in biofilm formation
